Holding throughout (assay type): biochemical
In experiment [1] the target is S6K (Homo sapiens, UniProt P23443). Briefly: S6K kinase inhibition, Z'-LYTE FRET assay. As to conditions: 100 μM ATP. The text has this:
The ability of illustrative Benzo[c][2,7]naphthyridine Derivatives to inhibit PKA, Akt1, S6K in vitro can be determined using a Fluorescence Resonance Energy Transfer (FRET) assay, such as a Z′-LYTE™ Kinase Assay Platform, commercially available from Invitrogen (c.f. Rodems et al., ASSAY Drug Devel. Technol. 1:9-19 (2002) and Zhang et al., J. Biomol. Screen. 4:67-73 (1999)). Z′-Lyte™ assay is an in vitro FRET-based assay that utilizes differential sensitivity of phosphorylated and non-phosphorylated peptides to proteolytic cleavage. The peptide substrate (also available from Invitrogen for each of PKA, Akt1 and S6K) is labeled with two different fluorophores, a fluorescence donor at one end of the peptide and a fluorescence acceptor at the other end of the peptide. In the primary kinase reaction, the kinase phosphorylates the peptide substrate in the presence of ATP. In the secondary reaction, a site-specific protease recognizes and cleaves non-phosphorylated peptides, but not phosphorylated peptides. Cleavage disrupts FRET between the donor and acceptor fluorophores on the peptide, whereas uncleaved phosphorylated peptides maintain FRET. Based on a formula that uses the ratio of donor emission (at 460 nm) to acceptor emission (at […]) after excitation of the donor fluorophore at 400 nm, the extent of phosphorylation of the peptide substrates is calculated. IC50 values of illustrative Benzo[c][2,7]naphthyridine Derivatives, shown in Table 12, are calculated using LSW Data Analysis package add-in for Excel (Microsoft).

Experiment [2] deals with PKA (Homo sapiens, UniProt P17612). Briefly: PKA kinase inhibition, Z'-LYTE FRET assay.
Experiment [3] addresses T1, PDK-1 (Homo sapiens, UniProt O15530).
T1 sequence (O15530 1-556): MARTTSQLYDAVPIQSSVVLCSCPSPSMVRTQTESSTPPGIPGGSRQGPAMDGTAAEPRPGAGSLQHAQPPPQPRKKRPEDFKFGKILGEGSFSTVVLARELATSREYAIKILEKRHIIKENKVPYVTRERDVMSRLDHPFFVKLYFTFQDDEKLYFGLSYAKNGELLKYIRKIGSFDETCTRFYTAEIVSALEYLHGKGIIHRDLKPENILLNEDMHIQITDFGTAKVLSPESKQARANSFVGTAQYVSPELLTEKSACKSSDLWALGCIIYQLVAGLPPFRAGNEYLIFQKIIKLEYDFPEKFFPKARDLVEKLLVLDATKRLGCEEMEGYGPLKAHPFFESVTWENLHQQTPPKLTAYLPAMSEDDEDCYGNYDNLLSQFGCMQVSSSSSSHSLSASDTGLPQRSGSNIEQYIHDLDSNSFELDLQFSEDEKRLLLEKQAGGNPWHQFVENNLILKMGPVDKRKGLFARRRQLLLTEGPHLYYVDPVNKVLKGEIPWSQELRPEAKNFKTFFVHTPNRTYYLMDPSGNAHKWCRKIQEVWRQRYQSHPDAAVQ
Put plainly: PDK-1 kinase inhibition ELISA assay (phosphorylation of His6-tagged SGK1 S422D by PDK-1). In general terms: In an ELISA, binding on a coated surface is turned into a signal by an enzyme label.

Where [4] appears, read: PDK-1 ELISA, Table 11, read-out: Average IC50.

Like-named read-outs stand apart in the source and are kept apart here. A value given as a limit tells only on which side of the number the result lay.

Sequence of S6K (P23443 whole entry): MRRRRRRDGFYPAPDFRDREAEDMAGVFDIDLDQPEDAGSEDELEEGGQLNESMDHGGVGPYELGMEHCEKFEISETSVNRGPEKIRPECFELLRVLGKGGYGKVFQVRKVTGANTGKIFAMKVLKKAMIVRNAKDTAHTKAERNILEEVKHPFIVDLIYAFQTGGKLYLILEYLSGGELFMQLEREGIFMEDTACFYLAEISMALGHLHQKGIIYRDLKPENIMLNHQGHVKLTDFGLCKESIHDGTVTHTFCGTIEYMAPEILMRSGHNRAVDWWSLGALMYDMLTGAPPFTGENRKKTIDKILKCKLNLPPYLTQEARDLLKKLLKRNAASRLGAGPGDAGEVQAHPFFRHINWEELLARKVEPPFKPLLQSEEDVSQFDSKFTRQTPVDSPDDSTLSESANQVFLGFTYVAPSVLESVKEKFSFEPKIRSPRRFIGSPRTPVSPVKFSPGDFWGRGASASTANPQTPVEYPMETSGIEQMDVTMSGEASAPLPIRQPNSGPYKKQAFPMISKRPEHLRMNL

Broadly, the IC50 is the concentration needed to halve the response being measured. With `COc1cc2ncc3c(N)nc(-c4cncc(OC[C@@H](N)Cc5ccc(F)cc5)c4)cc3c2cc1OCc1ccccc1` [Ia-1, 2-(5-{[(2S)-2-Amino-3-(4-fluorophenyl)propyl]oxy}pyridin-3-yl)-9-(benzyloxy)-8-methoxybenzo[c]-2,7-naphthyridin-4-amine], the IC50 in experiment [1] is over 2000 nM; in experiment [2] (100 μM ATP), over 2000 nM; in experiment [3] (setting [4]) it was over 100 nM.
For `COCCOc1cc2ncc3c(N)nc(-c4cccnc4)cc3c2cc1OC` [Ia-2, 9-Methoxy-8-(2-methoxyethoxy)-2-pyridin-3-ylbenzo[c]-2,7-naphthyridin-4-amine], the IC50 is 542 nM in experiment [1], over 2000 nM in experiment [2] (100 μM ATP) and 43 nM in experiment [3].
Consider `Nc1nc(-c2cncc(OC[C@@H](N)Cc3ccccc3)c2)cc2c1cnc1ccccc12` [Ia-3, 2-(5-{[(2S)-2-Amino-3-phenylpropyl]oxy}pyridin-3-yl)benzo[c]-2,7-naphthyridin-4-amine], for which the 50% inhibitory concentration (IC50) in experiment [1] was determined as 1200 nM; in experiment [2] (20 μM ATP) it was 300 nM; in experiment [2] (100 μM ATP), 911 nM; in experiment [3] (setting [4]), 104 nM.
Consider `Nc1nc(-c2cncc(OC[C@@H](N)Cc3ccccc3)c2)cc2c1cnc1cc(/C=C/CCN3CCCC3)ccc12` [Ia-4, 2-(5-{[(2S)-2-amino-3-phenylpropyl]oxy}pyridin-3-yl)-8-[(1E)-4-pyrrolidin-1-ylbut-1-en-1-yl]benzo[c]-2,7-naphthyridin-4-amine], for which the IC50 in experiment [1] was 89 nM; in experiment [2] (20 μM ATP) it was under 32 nM; in experiment [2] (100 μM ATP), 70 nM; in experiment [3] (setting [4]), 27 nM.
As for `COc1cc2ncc3c(N)nc(-c4cncc(OC[C@@H](N)Cc5ccc(NC(=O)OCc6ccccc6)cc5)c4)cc3c2cc1OC` [Ib-23], the figures for the IC50 in experiment [1], in experiment [2] (100 μM ATP) and in experiment [3] (setting [4]) were over 2000 nM, over 2000 nM and over 100 nM, respectively.
For the compound `COc1cc2ncc3c(N)nc(-c4cncc(OC[C@@H](N)Cc5cccc(C(F)(F)F)c5)c4)cc3c2cc1OC` [Ib-24, 2-[5-({(2S)-2-amino-3-[3-(trifluoromethyl)phenyl]propyl}oxy)pyridin-3-yl]-8,9-dimethoxybenzo[c]-2,7-naphthyridin-4-amine], the values for the IC50 in experiment [1], in experiment [2] (100 μM ATP) and in experiment [3] (setting [4]) were 169 to 194 nM, 198 to 219 nM and 13 nM, respectively.
For `COc1cc2ncc3c(N)nc(-c4cncc(OC[C@@H](N)CN(C)Cc5ccccc5)c4)cc3c2cc1OC` [Ib-27, (2S)-3-{[5-(4-amino-8,9-dimethoxybenzo[c]-2,7-naphthyridin-2-yl)pyridin-3-yl]oxy}-N1-benzyl-N1-methylpropane-1,2-diamine], the results for the IC50 in experiment [1], in experiment [2] (100 μM ATP) and in experiment [3] (setting [4]) were 37 to 43 nM, 110 to 217 nM and 6 nM, respectively.
As for `COc1cc2ncc3c(N)nc(-c4cncc(OC[C@@H](C)N)c4)cc3c2cc1OC` [Ib-30, 2-(5-{[(2R)-2-aminopropyl]oxy}pyridin-3-yl)-8,9-dimethoxybenzo[c]-2,7-naphthyridin-4-amine], the IC50 in experiment [1] came to 97 nM; in experiment [3] (setting [4]), 2 nM.
On the same counts, the results for `COc1cc2ncc3c(N)nc(-c4cncc(OC[C@H](C)N)c4)cc3c2cc1OC` [Ib-31, 2-(5-{[(2S)-2-aminopropyl]oxy}pyridin-3-yl)-8,9-dimethoxybenzo[c]-2,7-naphthyridin-4-amine] are 235 nM and 6 nM.
Turning to `COc1cc2ncc3c(N)nc(-c4cncc(C#CCN(C)Cc5ccccc5)c4)cc3c2cc1OC` [Ib-32, 2-(5-{3-[Benzyl(methyl)amino]prop-1-yn-1-yl}pyridin-3-yl)-8,9-dimethoxybenzo[c]-2,7-naphthyridin-4-amine], the IC50 in experiment [1] was over 2000 nM; in experiment [2] (100 μM ATP), over 2000 nM; in experiment [3] (setting [4]) it was 850 nM.
With `COc1cc2ncc3c(N)nc(-c4cncc(O[C@@H]5CCCNC5)c4)cc3c2cc1OC` [Ib-33, 8,9-dimethoxy-2-{5-[(3R)-piperidin-3-yloxy]pyridin-3-yl}benzo[c]-2,7-naphthyridin-4-amine], the IC50 in experiment [1] worked out at 138 nM; in experiment [2] (100 μM ATP), 368 nM; in experiment [3] (setting [4]) it was 8 nM.
With `COCCN(C[C@H](N)COc1cncc(-c2cc3c(cnc4cc(OC)c(OC)cc43)c(N)n2)c1)c1ccccc1` [Ib-34, (2S)-3-{[5-(4-amino-8,9-dimethoxybenzo[c]-2,7-naphthyridin-2-yl)pyridin-3-yl]oxy}-N1-(2-methoxyethyl)-N1-phenylpropane-1,2-diamine], the IC50 was 61 to 130 nM in experiment [1], under 32 nM in experiment [2] (20 μM ATP), 116 nM in experiment [2] (100 μM ATP) and 6 nM in experiment [3] (setting [4]).
In the case of `COc1cc2ncc3c(N)nc(-c4cncc(OC[C@@H]5CN(c6cccc(F)c6)C(=O)N5)c4)cc3c2cc1OC` [Ib-35, (4S)-4-({[5-(4-amino-8,9-dimethoxybenzo[c]-2,7-naphthyridin-2-yl)pyridin-3-yl]oxy}methyl)-1-(3-fluorophenyl)imidazolidin-2-one], the IC50 in experiment [1] was at least 1740 nM; in experiment [2] (20 μM ATP), over 4000 nM; in experiment [2] (100 μM ATP), over 2000 nM; in experiment [3] (setting [4]) it was 206 nM.
For the compound `COc1cc2ncc3c(N)nc(-c4cncc(OC[C@@H](N)CNc5cccc(F)c5)c4)cc3c2cc1OC` [Ib-36, (2S)-3-{[5-(4-amino-8,9-dimethoxybenzo[c]-2,7-naphthyridin-2-yl)pyridin-3-yl]oxy}-N1-(3-fluorophenyl)propane-1,2-diamine], the IC50 in experiment [1] is 30 to 133 nM; in experiment [2] (20 μM ATP) it was under 32 nM; in experiment [2] (100 μM ATP) it was 223 nM; in experiment [3] (setting [4]) it was 4 nM.
Take `COc1cc2ncc3c(N)nc(-c4cncc(OC[C@@H](N)CN5CCNC(=O)C5)c4)cc3c2cc1OC` [Ib-37, 4-((2S)-2-amino-3-{[5-(4-amino-8,9-dimethoxybenzo[c]-2,7-naphthyridin-2-yl)pyridin-3-yl]oxy}propyl)piperazin-2-one]: the IC50 in experiment [1] was 523 to 821 nM; in experiment [2] (20 μM ATP), 850 nM; in experiment [2] (100 μM ATP), over 2000 nM; in experiment [3] (setting [4]), 18 nM.
As to `COCCN(C)C[C@H](N)COc1cncc(-c2cc3c(cnc4cc(OC)c(OC)cc43)c(N)n2)c1` [Ib-38, (2S)-3-{[5-(4-amino-8,9-dimethoxybenzo[c]-2,7-naphthyridin-2-yl)pyridin-3-yl]oxy}-N1-(2-methoxyethyl)-N1-methylpropane-1,2-diamine], the IC50 in experiment [1] is 213 to 365 nM; in experiment [2] (20 μM ATP), 210 nM; in experiment [2] (100 μM ATP) it was 1040 nM; in experiment [3] (setting [4]) it was 9 nM.
On the same counts, the results for `COc1cc2ncc3c(N)nc(-c4cncc(O[C@H]5CCCNC5)c4)cc3c2cc1OC` [Ib-39, 8,9-dimethoxy-2-{5-[(3S)-piperidin-3-yloxy]pyridin-3-yl}benzo[c]-2,7-naphthyridin-4-amine] are at least 1700 nM, over 4000 nM, over 2000 nM and 84 nM.
On the same counts, the results for `COc1cc2ncc3c(N)nc(-c4cncc(OC5CCNCC5)c4)cc3c2cc1OC` [Ib-40, 8,9-Dimethoxy-2-[5-(piperidin-4-yloxy)pyridin-3-yl]benzo[c]-2,7-naphthyridin-4-amine] are over 2000 nM, over 4000 nM, over 2000 nM and 117 nM.
On to `COc1cc2ncc3c(N)nc(-c4cncc(OC[C@@H](N)Cc5ccc(F)cc5)c4)cc3c2cc1OC` [Ib-41, 2-(5-{[(2S)-2-amino-3-(4-fluorophenyl)propyl]oxy}pyridin-3-yl)-8,9-dimethoxybenzo[c]-2,7-naphthyridin-4-amine], for which the IC50 was 21 to 102 nM in experiment [1], under 32 nM in experiment [2] (20 μM ATP), 183 nM in experiment [2] (100 μM ATP) and 3 nM in experiment [3] (setting [4]).
As to `COc1cc2ncc3c(N)nc(-c4cncc(OC[C@@H](N)Cc5ccc(Cl)c(Cl)c5)c4)cc3c2cc1OC` [Ib-44, 2-(5-{[(2S)-2-amino-3-(3,4-dichlorophenyl)propyl]oxy}pyridin-3-yl)-8,9-dimethoxybenzo[c]-2,7-naphthyridin-4-amine], the IC50 was 19 nM in experiment [1], under 32 nM in experiment [2] (20 μM ATP) and 6 nM in experiment [3] (setting [4]).
Regarding `COc1cc2ncc3c(N)nc(-c4cncc(OC[C@@H](N)CN5CCOCC5)c4)cc3c2cc1OC` [Ib-45, 2-(5-{[(2S)-2-amino-3-morpholin-4-ylpropyl]oxy}pyridin-3-yl)-8,9-dimethoxybenzo[c]-2,7-naphthyridin-4-amine], the IC50 is 725 nM in experiment [1], 650 nM in experiment [2] (20 μM ATP), over 2000 nM in experiment [2] (100 μM ATP) and 25 nM in experiment [3] (setting [4]).
